Measurements: patent publication US6737383B1, “Herbicidal oxadiazolidines” (priority 1999, dated 2004)

How the values were obtained:
morningglory = experiment: Test B pre/postemergence morningglory; format: in vivo, Ipomoea hederacea
Method in brief: (§1)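 Test chemicals in a non-phytotoxic solvent mixture with surfactant were sprayed preemergence onto planted seeds and postemergence onto plants 2 to 18 cm tall (1- to 4-leaf stage). After twelve to sixteen days in a greenhouse, injury was visually rated against untreated controls from 0 (no effect) to 10 (complete control).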

surinam grass = experiment: Test B pre/postemergence surinam grass; format: in vivo, Brachiaria decumbens
Method in brief: as §1

pigweed = experiment: Test B pre/postemergence pigweed; format: in vivo, Amaranthus retroflexus
Method in brief: as §1

wheat = experiment: Test B pre/postemergence wheat; format: in vivo, Triticum aestivum
Method in brief: as §1

velvetleaf = experiment: Test B pre/postemergence velvetleaf; format: in vivo, Abutilon theophrasti
Method in brief: as §1

blackgrass = experiment: Test B pre/postemergence blackgrass; format: in vivo, Alopecurus myosuroides
Method in brief: as §1

crabgrass = experiment: Test B pre/postemergence crabgrass; format: in vivo, Digitaria sanguinalis
Method in brief: as §1

bamyardgrass = experiment: Test B flood test barnyardgrass; format: in vivo, Echinochloa crus-galli; conditions: for Barnyardgrass plant response rating (0 to 10 scale, 0 is no effect, 10 is complete control): Rate 125 g/ha, under heading Pre-emergence
Method in brief: (§2)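 Read-out is a visual response score from 0 (no effect) to 10 (complete control), assigned by comparison with untreated controls. Treatment was applied at the 2-leaf stage, and plants stayed in the greenhouse for twelve to sixteen days before scoring.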

soybean = experiment: Test B pre/postemergence soybean; format: in vivo, Glycine max
Method in brief: as §1

corn = experiment: Test B pre/postemergence corn; format: in vivo, Zea mays
Method in brief: as §1

sugar beet = experiment: Test B pre/postemergence sugar beet; format: in vivo, Beta vulgaris
Method in brief: as §1

smallflower flatsedge = experiment: Test B flood test smallflower flatsedge; format: in vivo, Cyperus difformis; conditions: for S. Flatsedge plant response rating (0 to 10 scale, 0 is no effect, 10 is complete control): Rate 125 g/ha, under heading Pre-emergence
Method in brief: as §2

rape = experiment: Test B pre/postemergence rape; format: in vivo, Brassica napus
Method in brief: as §1

wild oat = experiment: Test B pre/postemergence wild oat; format: in vivo, Avena fatua
Method in brief: as §1

duck salad = experiment: Test B flood test duck salad; format: in vivo, Heteranthera limosa; conditions: for Ducksalad plant response rating (0 to 10 scale, 0 is no effect, 10 is complete control): Rate 125 g/ha, under heading Pre-emergence
Method in brief: as §2

rice = experiment: Test B flood test rice; format: in vivo, Oryza sativa; conditions: for Rice plant response rating (0 to 10 scale, 0 is no effect, 10 is complete control): Rate 125 g/ha, under heading Pre-emergence
Method in brief: as §2

bedstraw = experiment: Test B pre/postemergence bedstraw; format: in vivo, Galium aparine
Method in brief: as §1

giant foxtail = experiment: Test B pre/postemergence giant foxtail; format: in vivo, Setaria faberii
Method in brief: as §1

cocklebur = experiment: Test B pre/postemergence cocklebur; format: in vivo, Xanthium strumarium
Method in brief: as §1

purple nutsedge = experiment: Test B pre/postemergence purple nutsedge; format: in vivo, Cyperus rotundus
Method in brief: as §1

[1] = Postemergence, Rate 125 g/ha, scale of 0 to 10 where 0 is no effect and 10 is complete control
[2] = Preemergence, Rate 125 g/ha, scale of 0 to 10 where 0 is no effect and 10 is complete control
[3] = Preemergence, Rate 500 g/ha, scale of 0 to 10 where 0 is no effect and 10 is complete control
[4] = Rate 250 g/ha, Postemergence, scale 0 to 10, 0 is no effect, 10 is complete control
[5] = Rate 500 g/ha, Postemergence, scale 0 to 10, 0 is no effect, 10 is complete control
[6] = Rate 1000 g/ha, Preemergence, scale 0 to 10 (0 no effect, 10 complete control)
[7] = Postemergence, Rate 1000 g/ha, scale 0 to 10 (0 no effect, 10 complete control)
[8] = Preemergence, Rate 250 g/ha, scale 0 to 10 (0 no effect, 10 complete control)
[9] = Pre-emergence, Rate 1000 g/ha, scale 0 to 10 (0 no effect, 10 complete control)
[10] = flood test species, visual evaluation after twelve to sixteen days
[11] = Rate 250 g/ha, Pre-emergence (flood test species), scale 0 to 10, 0 is no effect, 10 is complete control
[12] = Rate 500 g/ha, Pre-emergence section of Table B, 0 to 10 scale (0 no effect, 10 complete control)
[13] = Preemergence, Rate 62 g/ha, scale of 0 to 10 where 0 is no effect and 10 is complete control
[14] = Rate 62 g/ha, flood test species, Pre-emergence, visual evaluation after twelve to sixteen days

## CCOC(=O)CC(C(=O)OCC)n1c(=O)on(C(=O)N(c2ccc(Cl)cc2)C(C)C)c1=O (stereo not drawn) [Compound 681]
morningglory; [1]
  Morningglory plant response rating: 0
morningglory; [2]
  Plant response rating, Morningglory: 0
morningglory; [3]
  Plant response rating, Morningglory: 0
morningglory; [4]
  Morningglory plant response rating: 0
morningglory; [5]
  Morningglory plant response rating: 7
morningglory; [6]
  Plant response rating, Morningglory: 0
Surinam grass; [1]
  B. signalgrass plant response rating: 0
Surinam grass; [7]
  B. signalgrass plant response rating: 0
Surinam grass; [2]
  Plant response rating, B. signalgrass: 0
Surinam grass; [8]
  Plant response rating, B. signalgrass: 0
Surinam grass; [3]
  Plant response rating, B. signalgrass: 0
Surinam grass; [4]
  B. signalgrass plant response rating: 0
Surinam grass; [5]
  B. signalgrass plant response rating: 0
Surinam grass; [6]
  Plant response rating, B. signalgrass: 4
pigweed; [1]
  Redroot pigweed plant response rating: 0
pigweed; [7]
  Redroot pigweed plant response rating: 7
pigweed; [2]
  Plant response rating, Redroot pigweed: 0
pigweed; [3]
  Plant response rating, Redroot pigweed: 3
pigweed; [4]
  Redroot pigweed plant response rating: 2
pigweed; [5]
  Redroot pigweed plant response rating: 6
pigweed; [6]
  Plant response rating, Redroot pigweed: 5
wheat; [1]
  Wheat plant response rating: 0
wheat; [2]
  Plant response rating, Wheat: 0
wheat; [3]
  Plant response rating, Wheat: 0
wheat; [4]
  Wheat plant response rating: 0
wheat; [5]
  Wheat plant response rating: 0
wheat; [6]
  Plant response rating, Wheat: 0
velvetleaf; [1]
  Velvetleaf plant response rating: 0
velvetleaf; [2]
  Plant response rating, Velvetleaf: 0
velvetleaf; [3]
  Plant response rating, Velvetleaf: 0
velvetleaf; [4]
  Velvetleaf plant response rating: 0
velvetleaf; [5]
  Velvetleaf plant response rating: 0
velvetleaf; [6]
  Plant response rating, Velvetleaf: 0
blackgrass; [1]
  Blackgrass plant response rating: 0
blackgrass; [7]
  Blackgrass plant response rating: 4
blackgrass; [2]
  Plant response rating, Blackgrass: 0
blackgrass; [8]
  Plant response rating, Blackgrass: 1
blackgrass; [3]
  Plant response rating, Blackgrass: 3
blackgrass; [4]
  Blackgrass plant response rating: 0
blackgrass; [5]
  Blackgrass plant response rating: 0
blackgrass; [6]
  Plant response rating, Blackgrass: 6
crabgrass; [1]
  Crabgrass plant response rating: 0
crabgrass; [7]
  Crabgrass plant response rating: 2
crabgrass; [2]
  Plant response rating, Crabgrass: 0
crabgrass; [8]
  Plant response rating, Crabgrass: 2
crabgrass; [3]
  Plant response rating, Crabgrass: 7
crabgrass; [4]
  Crabgrass plant response rating: 0
crabgrass; [5]
  Crabgrass plant response rating: 0
crabgrass; [6]
  Plant response rating, Crabgrass: 8
bamyardgrass; [9]
  Barnyardgrass plant response rating: 0
bamyardgrass; [10]
  Barnyardgrass plant response rating (0 to 10 scale, 0 is no effect, 10 is complete control): 0
bamyardgrass; [11]
  Barnyardgrass plant response rating: 0
bamyardgrass; [12]
  Barnyardgrass plant response rating: 0
soybean; [1]
  Soybean plant response rating: 0
soybean; [2]
  Plant response rating, Soybean: 0
soybean; [3]
  Plant response rating, Soybean: 0
soybean; [4]
  Soybean plant response rating: 0
soybean; [5]
  Soybean plant response rating: 1
soybean; [6]
  Plant response rating, Soybean: 0
corn; [1]
  Corn plant response rating: 0
corn; [7]
  Corn plant response rating: 0
corn; [2]
  Plant response rating, Corn: 0
corn; [8]
  Plant response rating, Corn: 0
corn; [3]
  Plant response rating, Corn: 0
corn; [4]
  Corn plant response rating: 0
corn; [5]
  Corn plant response rating: 0
corn; [6]
  Plant response rating, Corn: 0
Sugar beet; [1]
  Sugarbeets plant response rating: 0
Sugar beet; [2]
  Plant response rating, Sugarbeets: 0
Sugar beet; [3]
  Plant response rating, Sugarbeets: 0
Sugar beet; [4]
  Sugarbeets plant response rating: 0
Sugar beet; [5]
  Sugarbeets plant response rating: 0
Sugar beet; [6]
  Plant response rating, Sugarbeets: 0
Smallflower flatsedge; [9]
  S. Flatsedge plant response rating: 0
Smallflower flatsedge; [10]
  S. Flatsedge plant response rating (0 to 10 scale, 0 is no effect, 10 is complete control): 0
Smallflower flatsedge; [11]
  S. Flatsedge plant response rating: 0
Smallflower flatsedge; [12]
  S. Flatsedge plant response rating: 0
rape; [1]
  Rape plant response rating: 0
rape; [7]
  Rape plant response rating: 0
rape; [2]
  Plant response rating, Rape: 0
rape; [3]
  Plant response rating, Rape: 0
rape; [4]
  Rape plant response rating: 0
rape; [5]
  Rape plant response rating: 0
rape; [6]
  Plant response rating, Rape: 0
Wild oat; [1]
  Wild oats plant response rating: 0
Wild oat; [2]
  Plant response rating, Wild oats: 0
Wild oat; [3]
  Plant response rating, Wild oats: 0
Wild oat; [4]
  Wild oats plant response rating: 0
Wild oat; [5]
  Wild oats plant response rating: 0
Wild oat; [6]
  Plant response rating, Wild oats: 3
Duck salad; [9]
  Ducksalad plant response rating: 0
Duck salad; [10]
  Ducksalad plant response rating (0 to 10 scale, 0 is no effect, 10 is complete control): 0
Duck salad; [11]
  Ducksalad plant response rating: 0
Duck salad; [12]
  Ducksalad plant response rating: 0
rice; [9]
  Rice plant response rating: 0
rice; [10]
  Rice plant response rating (0 to 10 scale, 0 is no effect, 10 is complete control): 0
rice; [11]
  Rice plant response rating: 0
rice; [12]
  Rice plant response rating: 0
bedstraw; [1]
  Bedstraw plant response rating: 0
bedstraw; [2]
  Plant response rating, Bedstraw: 0
bedstraw; [4]
  Bedstraw plant response rating: 0
Giant foxtail; [1]
  Giant foxtail plant response rating: 0
Giant foxtail; [7]
  Giant foxtail plant response rating: 3
Giant foxtail; [2]
  Plant response rating, Giant foxtail: 0
Giant foxtail; [3]
  Plant response rating, Giant foxtail: 9
Giant foxtail; [4]
  Giant foxtail plant response rating: 0
Giant foxtail; [5]
  Giant foxtail plant response rating: 0
Giant foxtail; [6]
  Plant response rating, Giant foxtail: 9
cocklebur; [1]
  Cocklebur plant response rating: 0
cocklebur; [7]
  Cocklebur plant response rating: 0
cocklebur; [2]
  Plant response rating, Cocklebur: 0
cocklebur; [8]
  Plant response rating, Cocklebur: 0
cocklebur; [3]
  Plant response rating, Cocklebur: 0
cocklebur; [4]
  Cocklebur plant response rating: 0
cocklebur; [5]
  Cocklebur plant response rating: 0
Purple nutsedge; [1]
  Nutsedge plant response rating: 0
Purple nutsedge; [2]
  Plant response rating, Nutsedge: 0
Purple nutsedge; [3]
  Plant response rating, Nutsedge: 0
Purple nutsedge; [4]
  Nutsedge plant response rating: 0
Purple nutsedge; [6]
  Plant response rating, Nutsedge: 0

## CC(C)N(C(=O)n1oc(=O)n(C(C)C2CC2)c1=O)c1ccccc1 (stereo not drawn) [Compound 699]
morningglory; [13]
  Morningglory plant response rating: 2
morningglory; [2]
  Plant response rating, Morningglory: 4
Surinam grass; [13]
  B. signalgrass plant response rating: 8
Surinam grass; [2]
  Plant response rating, B. signalgrass: 9
Surinam grass; [8]
  Plant response rating, B. signalgrass: 9
Surinam grass; [3]
  Plant response rating, B. signalgrass: 10
pigweed; [13]
  Redroot pigweed plant response rating: 3
pigweed; [2]
  Plant response rating, Redroot pigweed: 3
wheat; [13]
  Wheat plant response rating: 0
wheat; [2]
  Plant response rating, Wheat: 3
velvetleaf; [13]
  Velvetleaf plant response rating: 0
velvetleaf; [2]
  Plant response rating, Velvetleaf: 2
blackgrass; [13]
  Blackgrass plant response rating: 8
blackgrass; [2]
  Plant response rating, Blackgrass: 10
blackgrass; [8]
  Plant response rating, Blackgrass: 10
blackgrass; [3]
  Plant response rating, Blackgrass: 10
crabgrass; [13]
  Crabgrass plant response rating: 10
crabgrass; [2]
  Plant response rating, Crabgrass: 10
crabgrass; [8]
  Plant response rating, Crabgrass: 10
bamyardgrass; [14]
  Plant response rating, Barnyardgrass (0 to 10 scale, 0 is no effect, 10 is complete control): 4
bamyardgrass; [10]
  Barnyardgrass plant response rating (0 to 10 scale, 0 is no effect, 10 is complete control): 4
bamyardgrass; [11]
  Barnyardgrass plant response rating: 8
bamyardgrass; [12]
  Barnyardgrass plant response rating: 8
soybean; [13]
  Soybean plant response rating: 0
soybean; [2]
  Plant response rating, Soybean: 2
corn; [13]
  Corn plant response rating: 3
corn; [2]
  Plant response rating, Corn: 6
corn; [8]
  Plant response rating, Corn: 8
Sugar beet; [13]
  Sugarbeets plant response rating: 3
Sugar beet; [2]
  Plant response rating, Sugarbeets: 4
Smallflower flatsedge; [14]
  Plant response rating, S. Flatsedge (0 to 10 scale, 0 is no effect, 10 is complete control): 6
Smallflower flatsedge; [10]
  S. Flatsedge plant response rating (0 to 10 scale, 0 is no effect, 10 is complete control): 7
Smallflower flatsedge; [11]
  S. Flatsedge plant response rating: 9
Smallflower flatsedge; [12]
  S. Flatsedge plant response rating: 8
rape; [13]
  Rape plant response rating: 0
rape; [2]
  Plant response rating, Rape: 2
Wild oat; [13]
  Wild oats plant response rating: 9
Wild oat; [2]
  Plant response rating, Wild oats: 10
Duck salad; [14]
  Plant response rating, Ducksalad (0 to 10 scale, 0 is no effect, 10 is complete control): 3
Duck salad; [10]
  Ducksalad plant response rating (0 to 10 scale, 0 is no effect, 10 is complete control): 8
Duck salad; [11]
  Ducksalad plant response rating: 9
Duck salad; [12]
  Ducksalad plant response rating: 9
rice; [14]
  Plant response rating, Rice (0 to 10 scale, 0 is no effect, 10 is complete control): 0
rice; [10]
  Rice plant response rating (0 to 10 scale, 0 is no effect, 10 is complete control): 0
rice; [11]
  Rice plant response rating: 5
rice; [12]
  Rice plant response rating: 4
bedstraw; [13]
  Bedstraw plant response rating: 0
bedstraw; [8]
  Plant response rating, Bedstraw: 0
bedstraw; [3]
  Plant response rating, Bedstraw: 0
Giant foxtail; [13]
  Giant foxtail plant response rating: 10
Giant foxtail; [2]
  Plant response rating, Giant foxtail: 10
cocklebur; [13]
  Cocklebur plant response rating: 0
cocklebur; [2]
  Plant response rating, Cocklebur: 0
cocklebur; [8]
  Plant response rating, Cocklebur: 0
cocklebur; [3]
  Plant response rating, Cocklebur: 0
Purple nutsedge; [13]
  Nutsedge plant response rating: 0
Purple nutsedge; [2]
  Plant response rating, Nutsedge: 0
